Row | SMILES | melting point
1 | C[C@@H]1CN(c2ccnc([C@@H](C)O)n2)CCN1c1ccnc([C@@H](C)O)n1 [Example 39, 1R-(4-{4-[2-(1R-Hydroxy-ethyl)-pyrimidin-4-yl]-2R-methyl-piperazin-1-yl}-pyrimidin-2-yl)-ethanol] | 155 to 157 °C
2 | CC(=O)c1nccc(N2C[C@@H](C)N(c3ccnc([C@@H](C)O)n3)[C@@H](C)C2)n1 [Example 46, 1-(4-{4-[2-(1R-Hydroxy-ethyl)-pyrimidin-4-yl]-3R,5S-dimethyl-piperazin-1-yl}-pyrimidin-2-yl)-ethanone] | 150 to 164 °C
3 | C[C@@H](O)c1nccc(N2CCc3c(nc(-c4ccccc4)nc3-c3ccccc3)C2)n1 [Example 91] | 73 to 75 °C
4 | C[C@@H](O)c1nccc(N2CCC(C3CCN(c4ccnc([C@@H](C)O)n4)CC3)CC2)n1 [Example 3, 1R-(4-{1′-[2-(1R-Hydroxy-ethyl)-pyrimidin-4-yl]-[4,4′]bipiperidinyl-1-yl}-pyrimidin-2-yl)-ethanol] | 144 to 153 °C
5 | C[C@@H](O)c1nccc(N2CCN(S(=O)(=O)/C=C/c3ccccc3)CC2)n1 [Example 111, (E)-1-R{4-[4-(2-phenyl-ethenesulfonyl)-piperazin-1-yl]-pyrimidin-2-yl}-ethanol] | 68 to 70 °C
6 | C[C@@H](O)c1nccc(N2C[C@H]3CCC[C@@H](C2)N3c2ccnc([C@@H](C)O)n2)n1 (stereo in doubt) | 151 to 158 °C
7 | C[C@@H](O)c1nccc(N2CCc3c(c(=O)n(-c4cnc5ccccc5n4)n3C)C2)n1 [Example 75, (R)-5-[2-(1-Hydroxy-ethyl)-pyrimidin-4-yl]-1-methyl-2-quinoxalin-2-yl-1,2,4,5,6,7-hexahydro-pyrazolo[4,3-c]pyridin-3-one] | 217 to 219 °C (dec.)
8 | C[C@@H](O)c1nccc(N2CCN(c3ccnc([C@@H](C)O)n3)[C@@H](C)C2)n1 [Example 38, 1R-(4-{4-[2-(1R-Hydroxy-ethyl)-pyrimidin-4-yl]-2S-methyl-piperazin-1-yl}-pyrimidin-2-yl)-ethanol] | 158 to 160 °C

Other lines, results leading:

Row | melting point | SMILES
9 | 110 to 111 °C | C[C@@H](O)c1nccc(N2C[C@@H]3C[C@H]2CN3S(=O)(=O)N(C)C)n1 [Example 120]
10 | 144 to 148 °C | C[C@@H](O)c1nccc(N2CCc3nc(-c4ccncc4)ncc3C2)n1 [Example 258]
11 | 83 to 88 °C | C[C@@H](O)c1nccc(N2C[C@@H]3C[C@H]2CN3S(=O)(=O)c2ccc(Cl)cc2)n1 [Example 115]
12 | 130 to 132 °C | C[C@@H](O)c1nccc(N2CCc3nc(C(F)(F)F)ncc3C2)n1 [Example 255]
13 | 170 to 171 °C | COc1nc(CO)nc(N2[C@H](C)CN(c3ccnc([C@@H](C)O)n3)C[C@@H]2C)n1 [Example 236, 1R-{4-[4-(4-Hydroxymethyl-6-methoxy-[1,3,5]triazin-2-yl)-3R,5S-dimethyl-piperazin-1-yl]-pyrimidin-2-yl}-ethanol]
14 | 45 to 55 °C | C[C@@H](O)c1nccc(N2CCC(=Cc3cccc(Cl)c3)CC2)n1 [Example 176, (R)-1-{4-[4-(3-Chlorobenzylidene)-piperidin-1-yl]-pyrimidin-2-yl}-ethanol]
15 | 60 to 70 °C | C[C@@H]1CN(c2ccnc([C@@H](C)O)n2)C[C@H](C)N1C(=O)CSc1ncccn1 [Example 160, 1-{4-[2-(1R-Hydroxy-ethyl)-pyrimidin-4-yl]-2R,6S-dimethyl-piperazin-1-yl}-2-(pyrimidin-2-ylsulfanyl)-ethanone]
16 | 98 to 101 °C | C[C@@H](O)c1nccc(N2CCC(=C(c3ccccc3)c3ccccn3)CC2)n1 [Example 181]
17 | 224 to 226 °C | C[C@@H](O)c1nccc(N2CCn3c(nnc3-c3cc4ccccc4s3)C2)n1 [Example 262]
18 | 108 to 109 °C | C[C@@H](O)c1nccc(N2CCC(=C(c3ccccc3)c3ccccc3)CC2)n1 [Example 180]
19 | 141 to 142 °C | O=S(=O)(N1CCCCC1)N1CCN(c2ccnc(CO)n2)CC1 [Example 123]

— patent US6936600B2, “Sorbitol dehrydrogenase inhibitors” (Pfizer Inc, priority 1999, dated 2005)
